Reference: patent US20040102364A1, “Backbone cyclized radiolabelled somatostatin analogs” (priority 2001, published 2004)
Like-named read-outs stand apart in the source and are kept apart here.

Key:
[1] = biological target: SST-R2 (Homo sapiens, UniProt P30874); assay: Inhibition of SRIF binding to SST-R2 (species not stated); details: SST-R2
Protocol: The SST analogs were tested for their potency in inhibition of the binding of ^125I-Tyr^11-SRIF (based on the method described by Raynor et. al., Molecular Pharmacology 43: 838, 1993) to membrane preparations expressing the transmembranal SST receptors (SST-R1, 2, 3, 4 or 5). The receptor preparations used for these tests were either from the cloned human receptors selectively and stably expressed in Chinese Hamster Ovary (CHO) cells or from cell lines naturally expressing the SST-Rs. […] The binding reactions were filtered, the filters were washed and the bound radioactivity was counted in β counter after addition of scintillation solution. […]

[2] = biological target: T1, human cloned SST-R2 (Homo sapiens, UniProt P30874); assay: Inhibition of 125I-Tyr11-SRIF binding to cloned human SST-R2 membranes (CHO cells); details: human cloned receptor; read-out: Concentration (nM) of SST analogs to inhibit SRIF binding by 50%, SST-R 2
T1 construct: expressed in transfected cells; host or cells: CHO cells
T1 sequence (P30874 whole entry): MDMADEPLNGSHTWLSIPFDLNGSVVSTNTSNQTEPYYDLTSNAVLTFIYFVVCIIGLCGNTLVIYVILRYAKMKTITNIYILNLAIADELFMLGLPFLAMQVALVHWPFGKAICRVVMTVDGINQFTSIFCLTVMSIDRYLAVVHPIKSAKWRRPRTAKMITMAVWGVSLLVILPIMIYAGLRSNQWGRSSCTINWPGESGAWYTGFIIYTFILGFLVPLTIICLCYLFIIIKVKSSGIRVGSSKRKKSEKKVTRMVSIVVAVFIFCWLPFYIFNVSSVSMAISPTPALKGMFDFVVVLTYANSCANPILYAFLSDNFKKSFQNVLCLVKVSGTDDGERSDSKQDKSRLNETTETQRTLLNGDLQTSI
Protocol: (§1) The SST analogs were tested for their potency in inhibition of the binding of ^125I-Tyr^11-SRIF (based on the method described by Raynor et. al., Molecular Pharmacology 43: 838, 1993) to membrane preparations expressing the transmembranal SST receptors (SST-R1, 2, 3, 4 or 5). The receptor preparations used for these tests were either from the cloned human receptors selectively and stably expressed in Chinese Hamster Ovary (CHO) cells or from cell lines naturally expressing the SST-Rs. […] The binding reactions were filtered, the filters were washed and the bound radioactivity was counted in β counter after addition of scintillation solution.

[3] = biological target: rat SST-R1 (Rattus norvegicus, UniProt P28646); assay: Subtype selectivity binding, rat SST-R1
rat SST-R1, sequence (P28646 whole entry): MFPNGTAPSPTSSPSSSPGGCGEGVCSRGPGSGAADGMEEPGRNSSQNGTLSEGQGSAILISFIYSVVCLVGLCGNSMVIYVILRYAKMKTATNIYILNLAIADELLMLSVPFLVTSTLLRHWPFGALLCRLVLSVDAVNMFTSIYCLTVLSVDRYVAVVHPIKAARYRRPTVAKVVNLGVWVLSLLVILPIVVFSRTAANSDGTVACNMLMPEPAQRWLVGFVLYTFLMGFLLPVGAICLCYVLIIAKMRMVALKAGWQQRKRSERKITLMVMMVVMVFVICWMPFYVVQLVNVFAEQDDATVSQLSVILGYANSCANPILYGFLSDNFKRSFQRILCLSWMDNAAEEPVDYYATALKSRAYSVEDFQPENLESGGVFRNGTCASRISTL
Protocol: as §1
(§2) MPS-30012-02, 30012-08 and 30012-24 were all re-synthesized naked, purified and radiolabelled with ^99mTc. In vitro binding studies on all three ^99mTc compounds was performed. 30012-05, 30012-08 and 30012-24 were screened for subtype selectivity analysis.

[4] = biological target: rat SST-R2 (Rattus norvegicus, UniProt P30680); assay: Subtype selectivity binding, rat SST-R2
rat SST-R2, sequence (P30680 whole entry): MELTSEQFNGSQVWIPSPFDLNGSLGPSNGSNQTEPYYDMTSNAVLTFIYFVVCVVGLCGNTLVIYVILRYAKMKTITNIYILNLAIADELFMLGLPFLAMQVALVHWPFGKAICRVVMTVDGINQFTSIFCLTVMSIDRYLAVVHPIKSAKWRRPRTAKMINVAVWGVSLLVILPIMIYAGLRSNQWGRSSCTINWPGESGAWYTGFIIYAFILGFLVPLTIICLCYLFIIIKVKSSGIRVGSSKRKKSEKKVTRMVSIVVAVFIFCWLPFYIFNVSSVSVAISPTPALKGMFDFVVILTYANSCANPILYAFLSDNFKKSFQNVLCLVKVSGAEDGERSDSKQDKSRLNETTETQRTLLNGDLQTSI
Protocol: as §1, §2

[5] = biological target: rat SST-R3 (Rattus norvegicus, UniProt P30936); assay: Subtype selectivity binding, rat SST-R3
rat SST-R3, sequence (P30936 whole entry): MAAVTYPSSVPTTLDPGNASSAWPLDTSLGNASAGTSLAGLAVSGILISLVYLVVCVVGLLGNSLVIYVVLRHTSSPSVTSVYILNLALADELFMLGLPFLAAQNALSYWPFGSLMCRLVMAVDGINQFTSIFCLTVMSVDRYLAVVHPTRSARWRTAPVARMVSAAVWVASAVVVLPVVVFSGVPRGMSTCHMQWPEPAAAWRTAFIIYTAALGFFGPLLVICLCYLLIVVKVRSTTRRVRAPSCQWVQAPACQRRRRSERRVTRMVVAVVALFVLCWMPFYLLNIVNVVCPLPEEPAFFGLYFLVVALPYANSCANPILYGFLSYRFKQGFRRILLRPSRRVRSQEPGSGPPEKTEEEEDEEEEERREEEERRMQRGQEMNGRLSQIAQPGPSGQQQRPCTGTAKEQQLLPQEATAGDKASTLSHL
Protocol: as §1, §2

[6] = biological target: rat SST-R4 (Rattus norvegicus, UniProt P30937); assay: Subtype selectivity binding, rat SST-R4
rat SST-R4, sequence (P30937 whole entry): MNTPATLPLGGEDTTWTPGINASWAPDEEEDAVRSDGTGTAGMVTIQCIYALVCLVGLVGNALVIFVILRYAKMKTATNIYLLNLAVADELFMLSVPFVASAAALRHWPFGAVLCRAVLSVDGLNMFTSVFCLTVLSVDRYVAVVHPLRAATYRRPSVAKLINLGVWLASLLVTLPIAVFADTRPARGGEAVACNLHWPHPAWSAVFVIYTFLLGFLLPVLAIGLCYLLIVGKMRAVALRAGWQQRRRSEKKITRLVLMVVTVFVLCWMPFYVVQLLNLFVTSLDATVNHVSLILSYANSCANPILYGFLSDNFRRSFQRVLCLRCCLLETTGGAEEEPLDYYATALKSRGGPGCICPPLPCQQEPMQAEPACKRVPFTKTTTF
Protocol: as §1, §2

[7] = biological target: T2, rat SST-R5 (Rattus norvegicus, UniProt P30938); assay: Subtype selectivity binding, rat SST-R5
T2 sequence (P30938 1-363): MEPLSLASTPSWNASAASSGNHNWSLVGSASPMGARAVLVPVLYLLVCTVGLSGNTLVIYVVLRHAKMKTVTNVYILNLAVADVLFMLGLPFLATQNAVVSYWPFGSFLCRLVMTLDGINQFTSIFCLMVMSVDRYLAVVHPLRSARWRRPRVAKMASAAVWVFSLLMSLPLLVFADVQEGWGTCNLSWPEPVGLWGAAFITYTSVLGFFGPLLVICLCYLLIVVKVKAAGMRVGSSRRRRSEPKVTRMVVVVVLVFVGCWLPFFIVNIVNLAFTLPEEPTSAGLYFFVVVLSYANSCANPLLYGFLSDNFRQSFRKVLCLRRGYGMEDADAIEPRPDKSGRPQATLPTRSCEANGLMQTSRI
Protocol: as §1, §2

[8] = # rows: determined in rat somatostatin receptors, read-out: Concentration (nM) of SST analogs to inhibit SRIF binding by 50%, SST-R 1
[9] = rat SST-R1, read-out: Selectivity: IC50, nM, rat SST-R-1
[10] = # rows: determined in rat somatostatin receptors, read-out: Concentration (nM) of SST analogs to inhibit SRIF binding by 50%, SST-R 2
[11] = rat SST-R2, read-out: Selectivity: IC50, nM, rat SST-R-2
[12] = # rows: determined in rat somatostatin receptors, read-out: Concentration (nM) of SST analogs to inhibit SRIF binding by 50%, SST-R 3
[13] = rat SST-R3, read-out: Selectivity: IC50, nM, rat SST-R-3
[14] = # rows: determined in rat somatostatin receptors, read-out: Concentration (nM) of SST analogs to inhibit SRIF binding by 50%, SST-R 4
[15] = rat SST-R4, read-out: Selectivity: IC50, nM, rat SST-R-4
[16] = # rows: determined in rat somatostatin receptors, read-out: Concentration (nM) of SST analogs to inhibit SRIF binding by 50%, SST-R 5
[17] = rat SST-R5, read-out: Selectivity: IC50, nM, rat SST-R-5

SST-R2, sequence (P30874 whole entry): as the sequence (P30874 whole entry) above

Substance	SRIF Inhibited (%) 10 nM [1] [%]	SRIF Inhibited (%) 100 nM [1] [%]	IC50 [2] [nM]	IC50 [3, 8] [nM]	IC50 [3, 9] [nM]	IC50 [4, 10] [nM]	IC50 [4, 11] [nM]	IC50 [5, 12] [nM]	IC50 [5, 13] [nM]	IC50 [6, 14] [nM]	IC50 [6, 15] [nM]	IC50 [7, 16] [nM]	IC50 [7, 17] [nM]	binding to SST-R5 (in words) [7]
In-DTPA-5-aminopentanoic acid-Phe(C3**)-Cys*-Phe-(D)Trp-Lys-Thr-Cys*-Phe(N3**)-NH2 [PTR 3353]	14	59	–	–	–	–	–	–	–	–	–	–	–	–
In-DTPA-GABA-Phe(C3**)-Cys*-Phe-(D)Trp-Lys-Thr-Cys*-Phe(N3 **)-NH2 [PTR 3351]	5	53	–	–	–	–	–	–	–	–	–	–	–	–
In-DTPA-Gly-Phe(C3**)-Cys*-Phe-(D)Trp-Lys-Thr-Cys*-Phe(N3**)-NH2 [PTR 3347]	38	51	–	–	–	–	–	–	–	–	–	–	–	–
In-DTPA-b-Ala-Phe(C3**)-Cys*-Phe-(D)Trp-Lys-Thr-Cys*-Phe(N3**)-NH2 [PTR 3349]	20	54	–	–	–	–	–	–	–	–	–	–	–	–
ReO-MA-Dpr(Gly)-Dab*-Phe-Trp-(D)Trp-Lys-Thr-Phe-GlyC3*-NH2 [PTR 3395]	–	–	1.14	–	–	–	–	–	–	–	–	–	–	–

Next, values leading:

SRIF Inhibited (%) 10 nM [1] [%]	SRIF Inhibited (%) 100 nM [1] [%]	IC50 [2] [nM]	IC50 [3, 8] [nM]	IC50 [3, 9] [nM]	IC50 [4, 10] [nM]	IC50 [4, 11] [nM]	IC50 [5, 12] [nM]	IC50 [5, 13] [nM]	IC50 [6, 14] [nM]	IC50 [6, 15] [nM]	IC50 [7, 16] [nM]	IC50 [7, 17] [nM]	binding to SST-R5 (in words) [7]	Substance
–	–	–	89	89	0.25	0.25	76	76	3.3	3.3	2.2	2.2	–	ReO-MA-Dpr(Gly)-Gly-Dab*-Phe-Trp-(D)Trp-Lys-Thr-Phe-GlyC3*-NH2 [ReO-3397]
–	–	–	156	156	1.6	1.6	103	103	15	15	1.3	1.3	binds	ReO-MA-Dpr(Gly)-βAla-Dab*-Phe-Trp-(D)Trp-Lys-Thr-Phe-GlyC3*-NH2 [PTR 3399]
–	–	–	402	402	0.44	0.44	110	110	20	20	3.7	3.7	–	ReO-MA-Gly-Gly-Gly-6-aminohexanoic acid-Dab*-Phe-Trp-(D)Trp-Lys-Thr-Phe-GlyC3*-NH2 [PTR 3401]
